In ChEMBL document CHEMBL1201862, “PubChem BioAssay data set” (2004) one finds EC50, AC50 and IC50 data, which are given here for 31 compounds.

Test [1] is described as follows: NIH-3T3 fibroblast cytotoxicity, dose response, cytotoxicity control, cell-based, fluorescence, Alamar Blue, secondary assay (AID 2327).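 Note: NIH-3T3 mouse fibroblasts cultured with fluconazole at 8 µg/mL.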 It is filed as functional. (Alamar Blue is a resazurin reagent that responds to reducing activity.)
The test system of test [2] is Streptococcus sp. 'group A'. Put plainly: growth inhibition of control SK(-) GAS strain, dose response, counter-screen for streptokinase expression inhibitor project, luminescence, kanamycin, BacTiterGlo, confirmation (AID 1900). It is filed as functional, organism-based. Background: A counterscreen serves to expose hits that act by an unwanted route or on another target.

A short description of test [3]: C. albicans growth with fluconazole, confirmation, fluorescence, retest (AID 2467). The test is classed as functional, cell-based.
The nature of test [4]: growth suppression of PTEN-null colon cells, dose response, cell-based, HCT116 PTEN knockout (AID 1047).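 Note: HCT116 colon tumor cells with PTEN knocked out; cells exposed to compound for 60 hours before readout; potency for loss of cell viability measured by luminescence.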 The test is classed as functional.
Test [5] can be described thus: growth suppression of beta-catenin-knockout colon cells, dose response, cell-based, HCT116, human colon tumor (AID 1045).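 Note: HCT116 colon tumor cells with beta catenin knocked out; cells exposed to compound for 60 hours.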 It is filed as functional.
For a further test, the system named is Streptococcus. Put plainly: Group A Streptococcus viability loss, dose response, counter-screen for streptokinase expression inhibitor project, luminescence, BacTiterGlo (AID 1915).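 Note: potency for reduction of bacterial viability or growth.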 The test is classed as functional, organism-based.
The target in test [6] is FAD-linked sulfhydryl oxidase ALR (Homo sapiens, UniProt P55789). Put plainly: inhibitors of human ALR sulfhydryl oxidase, dose response, biochemical, H2O2 detection, luminescence, cherry-pick (AID 493248).
Chain of FAD-linked sulfhydryl oxidase ALR (P55789 whole entry): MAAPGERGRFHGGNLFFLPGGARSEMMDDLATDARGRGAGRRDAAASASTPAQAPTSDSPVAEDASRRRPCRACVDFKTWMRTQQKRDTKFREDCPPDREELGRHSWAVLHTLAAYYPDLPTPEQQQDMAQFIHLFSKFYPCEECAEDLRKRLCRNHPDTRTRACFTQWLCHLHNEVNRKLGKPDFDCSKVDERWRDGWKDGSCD
The target in test [7] is T1, Polyadenylate-binding protein 1 (Homo sapiens, UniProt P11940). Put plainly: PABP1 MLLE–PAM2 interaction inhibitors, dose response, miRNA deadenylation inhibitor project, biochemical, fluorescence polarization, Cy5-PAM2 peptide, secondary (AID 602260). It is filed as functional. To be noted: read-out: IC50_Mean. (In general: Polarisation of emitted light reports the rotation of a fluorescent probe.)
T1 sequence (P11940 whole entry): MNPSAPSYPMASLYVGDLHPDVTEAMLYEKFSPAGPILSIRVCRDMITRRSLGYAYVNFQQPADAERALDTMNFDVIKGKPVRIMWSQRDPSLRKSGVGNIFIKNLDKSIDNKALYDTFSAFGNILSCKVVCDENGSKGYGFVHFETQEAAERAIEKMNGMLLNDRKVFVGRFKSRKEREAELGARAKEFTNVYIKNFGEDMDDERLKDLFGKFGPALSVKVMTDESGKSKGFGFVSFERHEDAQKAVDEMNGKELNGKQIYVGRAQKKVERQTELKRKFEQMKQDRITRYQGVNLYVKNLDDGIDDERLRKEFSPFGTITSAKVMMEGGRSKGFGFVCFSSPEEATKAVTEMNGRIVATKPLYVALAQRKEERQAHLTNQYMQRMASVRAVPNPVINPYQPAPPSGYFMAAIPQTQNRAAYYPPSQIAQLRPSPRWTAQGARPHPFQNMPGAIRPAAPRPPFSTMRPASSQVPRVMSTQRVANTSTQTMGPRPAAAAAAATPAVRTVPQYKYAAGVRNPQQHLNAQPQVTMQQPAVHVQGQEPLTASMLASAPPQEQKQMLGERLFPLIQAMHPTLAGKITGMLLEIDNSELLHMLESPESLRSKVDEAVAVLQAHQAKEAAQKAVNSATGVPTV

The target of test [8] is T1, Polyadenylate-binding protein 1. Briefly: PABP1 MLLE–PAM2 binding inhibitor potency, dose response, biochemical, fluorescence polarization, FITC-PAM2 peptide (AID 602259). The test is classed as functional. Particulars: read-out: IC50_Mean.
Test [9] concerns the target T2, Ubiquitin-conjugating enzyme E2 N (Homo sapiens, UniProt P61088).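 Note: Dose-response confirmation in a TR-FRET assay detecting UBC13-driven polyubiquitin chain formation, inhibition measured.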
T2 sequence (P61088 whole entry): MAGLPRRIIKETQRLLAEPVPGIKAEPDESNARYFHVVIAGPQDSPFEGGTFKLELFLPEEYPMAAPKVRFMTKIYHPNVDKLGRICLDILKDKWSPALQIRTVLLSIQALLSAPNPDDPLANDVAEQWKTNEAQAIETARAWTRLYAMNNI
The test is classed as functional.

Test [10] deals with T3, Corticotropin-releasing factor receptor 2/Corticotropin-releasing factor-binding protein (Homo sapiens, UniProt P24387+Q13324).
T3 sequence (Q13324 whole entry): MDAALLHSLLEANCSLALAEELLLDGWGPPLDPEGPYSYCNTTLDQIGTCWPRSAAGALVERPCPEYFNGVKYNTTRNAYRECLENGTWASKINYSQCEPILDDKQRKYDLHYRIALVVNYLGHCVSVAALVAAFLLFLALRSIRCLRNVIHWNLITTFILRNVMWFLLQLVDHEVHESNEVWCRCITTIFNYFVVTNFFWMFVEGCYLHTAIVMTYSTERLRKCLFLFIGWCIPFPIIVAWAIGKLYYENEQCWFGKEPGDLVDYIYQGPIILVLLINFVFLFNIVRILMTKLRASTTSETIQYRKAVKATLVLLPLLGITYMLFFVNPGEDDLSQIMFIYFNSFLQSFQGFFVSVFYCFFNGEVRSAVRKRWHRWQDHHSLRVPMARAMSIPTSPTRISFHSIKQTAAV
T3 sequence (P24387 whole entry): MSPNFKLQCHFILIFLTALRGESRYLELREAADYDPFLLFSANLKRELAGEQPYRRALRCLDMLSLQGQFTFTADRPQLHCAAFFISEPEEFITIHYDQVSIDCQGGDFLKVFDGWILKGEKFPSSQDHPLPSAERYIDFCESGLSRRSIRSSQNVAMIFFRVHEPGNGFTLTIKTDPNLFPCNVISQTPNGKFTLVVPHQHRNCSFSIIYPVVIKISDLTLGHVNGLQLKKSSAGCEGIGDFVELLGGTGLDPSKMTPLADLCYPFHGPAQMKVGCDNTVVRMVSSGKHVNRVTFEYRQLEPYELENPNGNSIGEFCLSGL
Put plainly: Dose Response confirmation of uHTS hits for small molecule antagonists of the CRF-binding protein and CRF-R2 receptor complex. It is filed as functional. To be noted: read-out: IC50_Mean.

Test [11] deals with T3, Corticotropin-releasing factor receptor 2/Corticotropin-releasing factor-binding protein. Briefly: activators of CRF receptor 2 with binding protein – uHTS hits, confirmation (AID 602473). It is filed as functional. Particulars: read-out: EC50_Mean.
A further test addresses T4, Streptokinase A (Streptococcus pyogenes serotype M1, UniProt P10520).
T4 sequence (P10520 whole entry): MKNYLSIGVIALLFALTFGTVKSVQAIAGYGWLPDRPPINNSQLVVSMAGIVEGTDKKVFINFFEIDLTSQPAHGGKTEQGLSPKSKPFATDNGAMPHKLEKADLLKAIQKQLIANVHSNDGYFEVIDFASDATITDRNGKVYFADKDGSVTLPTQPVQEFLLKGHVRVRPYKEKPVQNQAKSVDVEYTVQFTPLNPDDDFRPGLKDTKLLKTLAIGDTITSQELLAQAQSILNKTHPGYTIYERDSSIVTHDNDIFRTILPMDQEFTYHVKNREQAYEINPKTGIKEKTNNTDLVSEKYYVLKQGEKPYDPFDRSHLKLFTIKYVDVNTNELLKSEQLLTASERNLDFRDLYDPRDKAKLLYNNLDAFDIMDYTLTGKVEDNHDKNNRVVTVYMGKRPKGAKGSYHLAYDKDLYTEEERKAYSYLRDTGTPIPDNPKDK
Briefly: S. pyogenes streptokinase expression inhibitors, potency, dose response, plasminogen activation absorbance, OD405 (AID 1914).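 Note: secreted streptokinase activity via plasminogen activation per viability signal from cell pellet.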 The test is classed as functional, Streptococcus pyogenes M1 GAS.

Test [12] can be described thus: control 3'UTR Renilla luciferase suppression, dose response, counter-screen for Shn3 inhibitor project, cell-based, Clone20-Shn3RL, cherry-picked (AID 624133). The test is classed as functional.
Test [13] is described as follows: Luminescence Cell-Based Dose Confirmation HTS to Identify Activators of 5'UTR Stem-Loop Driven Alpha-Synuclein mRNA Translation in H4 Neuroglioblastoma Cells. [Related pubchem assays: 1829 (Project Summary), 1814 (Primary HTS)]. It is filed as functional.
Test [14] in a line: Luminescence Cell-Based Dose Response HTS to Identify Activators of Luciferase Translation or Activity in H4 […] Cells. [Related pubchem assays: 1829 (Project Summary), 1814 (Primary HTS)]. The test is classed as functional.
The next test has as its system H4. Put plainly: Luminescence Cell-Based Dose Response HTS to Identify Activators of 5'UTR Stem-Loop Driven Prion Protein mRNA Translation in H4 Neuroglioblastoma Cells. [Related pubchem assays: 1829 (Project Summary), 1814 (Primary HTS)]. It is filed as functional. Particulars: Homo sapiens.
Test [15] is described as follows: inhibitors of firefly luciferase expression or activity, dose response, H4 neuroglioma cells, luminescence (AID 1990). It is filed as functional, cell-based.
A short description of test [16]: Luminescence Cell-Based Dose Response HTS to Identify Inhibitors of 5'UTR Stem-Loop Driven Prion Protein mRNA Translation in H4 Neuroglioblastoma Cells. [Related pubchem assays: 1827 (Project Summary), 1813 (Primary HTS)]. The test is classed as functional.
The nature of test [17]: inhibitors of SNCA 5'UTR-driven reporter translation, confirmation, H4 neuroglioma cells, luminescence (AID 1988). It is filed as functional, cell-based.

Active and inactive are the calls of the source. Where only a bound is given, the exact number is not on record here.

Regarding `Cc1ccc(NC(=S)c2nc3ccccc3[nH]2)cc1`, the EC50 in [1] is > 160 µM (inactive); in [2] it was 3.7 µM (active); in test [3] it was > 38 µM (not active); in [4], 26.3 µM (active); in test [5], 19.2 µM (active); in the test on Streptococcus, 7.64 µM (active).

The term AC50 denotes the concentration at which the activity in the assay is half-maximal. Turning to `N#Cc1cnn(-c2ccccc2)c1NC(=O)CN1CCN(c2ccccc2)CC1`, the AC50 in test [6] is 13.4 µM (active).

`CCOC(=O)c1nc(Nc2ccc(C)cc2)c2ccccc2n1`: the IC50 in test [7] and in test [8] was > 66 µM (inactive) in each case.

With `CCOC(=O)c1c(CN2CCN(c3ccccc3)CC2)oc2ccc(O)cc12`, the IC50 in test [9] was > 20 µM (inactive).

In the case of `COc1ccc(NC(=O)CSc2nnc(-c3ccccc3C)n2N)cc1`, the IC50 in test [7] and in [8] was > 66 µM (inactive) each time.

As for `CN(C(=O)CN1C(=O)/C(=C/c2ccccc2Cl)SC1=S)C1CCS(=O)(=O)C1` (stereo not given), the IC50 in [7] is > 66 µM (inactive); in test [10] it was > 47.1 µM (inactive); in [8], > 66 µM (inactive). The EC50 in [11] is > 53 µM (inactive).

In the case of `O=C(c1cccc(F)c1)N1CCC(c2nc3ccccc3s2)CC1`, the AC50 in [6] was 0.433 µM (active).

Regarding `O=C(c1oc2ccccc2c1CSCc1ccccc1)N1CCN(c2ncccn2)CC1`, the IC50 is > 66 µM (inactive) in test [7] and 38.5 µM (inactive) in test [8].

Regarding `CCOC(=O)c1c(NC(=O)C2Cc3ccccc3C(=O)O2)sc2c1CCCC2` (stereo not given), the EC50 in test [1] was > 160 µM (inactive); in test [3], > 38 µM (not active).

Regarding `Cc1cc(C)n(N=C(S)NC2CCCC2)c(=O)c1C#N`, the IC50 in [7] and in test [8] was > 66 µM (inactive) in each case.

On to `COc1cc(Nc2c([N+](=O)[O-])nn(-c3ccc4c(c3)OCCO4)[n+]2[O-])cc(OC)c1`, for which the EC50 in test [2] is 2.35 µM (active); on Streptokinase A, > 150 µM (not active); in [4], 2.29 µM (active); in [5], 1.78 µM (active); in the test with Streptococcus, 19 µM (active).

As to `Cc1ccc2[nH]c(CCc3ccc(N)cc3)nc2c1`, the AC50 in test [6] was 0.018 µM (active).

As to `CC(=O)n1cc([C@H]2C=C(C(=O)Nc3ccccc3)O[C@@H](OCCCCO)C2)c2ccccc21`, the IC50 in [9] was > 20 µM (inactive).

In the case of `COc1cccc(N2C(=O)CC(N3CCc4ccccc43)C2=O)c1` (stereo not given), the AC50 in [6] is 1.21 µM (active).

`Cc1nn(C)c(C(=O)NC(=S)Nc2ccc([N+](=O)[O-])cc2)c1Cl`: the IC50 in test [7] and in test [8] was > 66 µM (inactive) each time.

Take `CC(Cc1cccs1)NC(=O)Nc1ccc(F)cc1` (stereo not given): the AC50 in test [12] is 28.8 µM (active).

For the compound `CC(C(=O)NC1C(=O)N2C(C(=O)O)=C(CSc3nnnn3C)CSC12)n1cc(Cl)cn1` (stereo not given), the EC50 is 0.161 µM (active) in test [2] and 0.343 µM (active) in the test on Streptococcus. The IC50 in test [7] and in test [8] was > 66 µM (inactive) in each case.

As to `CCn1c(C)nc2cc(C(=O)NN=C(S)Nc3ccc(Cl)cc3Cl)ccc21`, the figures for the EC50 in test [1] and in [3] were > 160 µM (inactive) and 6.98 µM (active), respectively.

For the compound `COc1cccc(C(=O)NC2=NCCS2)c1OC`, the IC50 in test [7] and in test [8] was > 66 µM (inactive) each time.

With `O=C(CSc1nc(-c2ccccc2)cs1)Nc1nccs1`, the results for the EC50 in [1] and in test [3] were > 160 µM (inactive) and > 38 µM (not active), respectively.

As for `O=C(NNC(=O)c1ccccc1O)c1ccc(Cl)c(S(=O)(=O)N2CCCCC2)c1`, the AC50 in test [6] was 56.4 µM (active).

Regarding `OCCNc1nc(Nc2cc(Cl)ccc2OC2CCCC2)nc(N2CCCC2)n1`, the IC50 in [9] was > 20 µM (inactive).

Regarding `OCC(O)CN=C(S)NC1CCCCC1` (stereo not given), the IC50 in test [7] and in [8] was > 66 µM (inactive) throughout.

For the compound `CC[C@@H](C)[C@@H]1CN([C@@H](CN2CCC[C@H]2CN2C(N)=NC[C@@H]2Cc2ccccc2)C(C)C)C(=N)N1CCCC1CCCC1`, the IC50 in [9] was > 20 µM (inactive).

As to `CC(C)NC(=S)N/N=C/c1ccc(C(C)(C)C)cc1`, the EC50 was 91.3 µM (inconclusive) in test [1] and > 38 µM (not active) in test [3].

On to `CC(C)Oc1ccc(Cl)cc1Nc1nc(NCCO)nc(N2CCCC2)n1`, for which the IC50 in test [9] is > 20 µM (inactive).

On to `O=C(O/N=C1/CCSc2ccccc21)c1ccc(F)cc1`, for which the EC50 is 30.1 µM (active) in [1] and > 38 µM (not active) in test [3].

For the compound `CCN(CC)c1ccc(/C=N/NC(=O)Nc2nonc2N)cc1`, the EC50 in [13] was 98.8 µM (active); in test [14], 7.18 µM (active); with H4, 30.9 µM (active). Besides, the AC50 in test [6] is 1.38 µM (active).

As for `CC(C)C[C@H](NC(=O)c1[nH]cnc1C(=O)N[C@@H](CCCCN)C(=O)OC(C)(C)C)C(=O)OC(C)(C)C`, in test [9], the IC50 is > 20 µM (inactive).

For the compound `CN(C)c1ccc(/C=N/NC(=O)CCc2c[nH]c3ccccc23)cc1`, in test [6], the AC50 is 2.11 µM (active).

`COc1ccc(-c2n(C)c3ccccc3[n+]2CC(=O)OC2CC(C)CCC2C(C)C)cc1` (stereo not given): the EC50 in test [1] is 17.4 µM (inconclusive); in [15], 8.73 µM (active); in test [16], 10.9 µM (active); in [17], 8.61 µM (active); in [3], 0.25 µM (active).
